The values below come from ChEMBL document CHEMBL1201862, “PubChem BioAssay data set” (2004).

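Five concentrations, 48 hours, 96-well plates. GI50 marks 50% less growth.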 Calls of active or inactive are those of the source. Cut-off read from the data, not from the text of the source: active = GI50 up to about 1.1 µM and inactive = higher.

Test systems include 786-0; CCRF-CEM; EKVX; HCT-15; HOP-62; LXFL 529; Malme-3M; NCI-H23; OVCAR-3; RXF 393; SK-MEL-5; SN12C; SNB-19; SW-620; TK-10; UO-31; NCI-H460; Hs-578T; MDA-N; T47D.
Common to all, as to assay: NCI tumour cell line growth inhibition, 48 h

For the compound `COC(=O)C(=O)Cc1nc2ccccc2s1`, the GI50 is > 100 µM (inactive) with 786-0; > 100 µM (inactive) in the assay with CCRF-CEM; > 100 µM (inactive) in the assay on EKVX; > 100 µM in the assay on HCT-15; > 100 µM (inactive) in the assay on HOP-62; > 100 µM (inactive) in the assay on LXFL 529. In addition, the GI50 in the assay on Malme-3M, in the assay with NCI-H23, with OVCAR-3, in the assay on RXF 393, in the assay on SK-MEL-5 and in the assay with SN12C was > 100 µM (inactive) throughout. Moreover, the GI50 in the assay on SNB-19, with SW-620, in the assay on TK-10 and with UO-31 was > 100 µM (inactive) in each case.
For `COc1cc2ccc3c4cc(OC)c(OCc5ccccc5)cc4cnc3c2cc1OC`, the GI50 in the assay with 786-0, in the assay on CCRF-CEM, in the assay with EKVX, with HOP-62, in the assay on LXFL 529 and in the assay on Malme-3M was > 100 µM (inactive) each time. Moreover, the GI50 in the assay on NCI-H23, with NCI-H460, in the assay with OVCAR-3, in the assay on SK-MEL-5, in the assay with SN12C and in the assay with SW-620 was > 100 µM (inactive) throughout. Moreover, the GI50 was > 100 µM (inactive) with TK-10 and 70 µM (inactive) in the assay on UO-31.
On to `Cc1c(/C=N/NS(=O)(=O)c2ccccc2)no[n+]1[O-]`, for which the GI50 with 786-0 is > 100 µM (inactive); with CCRF-CEM it was > 100 µM (inactive); with EKVX, > 100 µM (inactive); in the assay with HCT-15, > 100 µM; in the assay with LXFL 529, > 100 µM (inactive); in the assay on Malme-3M, > 100 µM (inactive). The GI50 with NCI-H23 is > 100 µM (inactive); with OVCAR-3, > 100 µM (inactive); in the assay with RXF 393 it was > 100 µM (inactive); in the assay with SK-MEL-5, > 100 µM (inactive); with SN12C, > 100 µM (inactive); with SNB-19 it was 37.9 µM (inactive). The GI50 with SW-620 was > 100 µM (inactive); in the assay on TK-10, > 100 µM (inactive); in the assay on UO-31 it was 2.92 µM (inactive).
On to `Cn1c(O)c(C(=O)NC2CCCCC2)c(=O)n(C)c1=S`, for which the GI50 is 6.15 µM (inactive) in the assay with 786-0; 5.83 µM (inactive) in the assay on CCRF-CEM; 5.02 µM with HCT-15; 4.85 µM (inactive) in the assay on HOP-62; 2.78 µM (inactive) with LXFL 529; 4.4 µM (inactive) in the assay with NCI-H23. For the same compound, the GI50 is 6.1 µM (inactive) in the assay on NCI-H460; 4.93 µM (inactive) in the assay with OVCAR-3; 5.05 µM (inactive) in the assay with SK-MEL-5; 6.12 µM (inactive) in the assay with SN12C; 7.11 µM (inactive) in the assay on SNB-19; 5.79 µM (inactive) in the assay on SW-620. Besides, the GI50 in the assay on TK-10 was 6.32 µM (inactive); in the assay on UO-31, 3.24 µM (inactive).
As for `CCCCc1ccc(Nc2nc3c(ncn3C3OC(COC(C)=O)C(OC(C)=O)C3OC(C)=O)c(=O)[nH]2)cc1` (stereo not drawn), the GI50 in the assay with 786-0 is 17.2 µM (inactive); in the assay on CCRF-CEM, 16.3 µM (inactive); in the assay with EKVX, 36.7 µM (inactive); in the assay with HCT-15, > 100 µM; in the assay on HOP-62 it was 17.8 µM (inactive); in the assay with Hs-578T, 22.9 µM (inactive). In addition, the GI50 in the assay on MDA-N is 19.5 µM (inactive); in the assay with Malme-3M, 19.4 µM (inactive); in the assay with NCI-H23, 17.4 µM (inactive); with NCI-H460 it was 18.3 µM (inactive); in the assay with OVCAR-3 it was 15.3 µM (inactive); in the assay on RXF 393, 19.1 µM (inactive). Moreover, the GI50 in the assay on SK-MEL-5 is 17.4 µM (inactive); with SN12C, 24.2 µM (inactive); in the assay on SNB-19, 27.7 µM (inactive); in the assay on SW-620 it was 25.1 µM (inactive); with T47D, 13.7 µM (inactive); in the assay with TK-10, 45.3 µM (inactive). In the assay on UO-31, the GI50 is > 100 µM (inactive).
For the compound `COc1cc(OC)cc(Oc2nc3ccccc3nc2C(F)(F)F)c1`, the GI50 in the assay on 786-0 was > 100 µM (inactive); in the assay on CCRF-CEM it was 0.986 µM (active); in the assay with EKVX it was > 100 µM (inactive); in the assay on HCT-15, 51.4 µM; in the assay with HOP-62, 19.3 µM (inactive); in the assay on Hs-578T it was 72.1 µM (inactive). For the same compound, the GI50 in the assay with MDA-N was 3.66 µM (inactive); with Malme-3M, > 100 µM (inactive); in the assay on NCI-H23, > 100 µM (inactive); with NCI-H460 it was > 100 µM (inactive); in the assay with OVCAR-3, > 100 µM (inactive); in the assay with RXF 393 it was 19.5 µM (inactive). The GI50 with SK-MEL-5 was 76.7 µM (inactive); in the assay with SN12C it was > 100 µM (inactive); in the assay with SNB-19, 53.7 µM (inactive); in the assay on SW-620 it was 20.4 µM (inactive); in the assay on T47D it was > 100 µM (inactive); with TK-10 it was > 100 µM (inactive). Also, in the assay on UO-31, the GI50 is > 100 µM (inactive).
With `CCNc1nnc(CSc2nc(-c3ccccc3)c(-c3ccccc3)[nH]2)s1`, the GI50 was 24.4 µM (inactive) in the assay with 786-0; 18.3 µM (inactive) with CCRF-CEM; 14.3 µM (inactive) in the assay on EKVX; 18.3 µM with HCT-15; 19.9 µM (inactive) in the assay with HOP-62; 24.7 µM (inactive) with LXFL 529. Besides, the GI50 in the assay on Malme-3M was 21.5 µM (inactive); with NCI-H23, 26.1 µM (inactive); in the assay with NCI-H460, 24.9 µM (inactive); in the assay on OVCAR-3, 20.6 µM (inactive); in the assay with SK-MEL-5 it was 11.8 µM (inactive); with SN12C it was 20.8 µM (inactive). Further, the GI50 in the assay with SNB-19 is 16.7 µM (inactive); in the assay on SW-620, 20.2 µM (inactive); in the assay on TK-10 it was 18.5 µM (inactive); with UO-31, 14 µM (inactive).
Regarding `Nc1ccc(-c2cc(C(=O)Nc3nccs3)nc(S)n2)cc1`, the GI50 is > 100 µM (inactive) in the assay on 786-0; > 100 µM (inactive) with CCRF-CEM; > 100 µM (inactive) in the assay with EKVX; > 100 µM in the assay on HCT-15; > 100 µM (inactive) in the assay with LXFL 529; > 100 µM (inactive) in the assay with Malme-3M. Also, the GI50 in the assay with NCI-H23, with OVCAR-3, in the assay on RXF 393, with SK-MEL-5, with SN12C and with SNB-19 was > 100 µM (inactive) each time. Moreover, the GI50 in the assay on SW-620, in the assay with TK-10 and in the assay with UO-31 was > 100 µM (inactive) in each case.
Consider `CNC(=O)C1CCC(=O)N1CN(C(C)=O)c1ccccc1` (stereo not drawn), for which the GI50 in the assay on 786-0 was > 100 µM (inactive); in the assay on CCRF-CEM, 0.0471 µM (active); in the assay on EKVX, > 100 µM (inactive); in the assay on HCT-15 it was > 100 µM; with HOP-62 it was > 100 µM (inactive); in the assay on Hs-578T, > 100 µM (inactive). In addition, the GI50 in the assay on MDA-N, in the assay with Malme-3M, in the assay with NCI-H23, in the assay with NCI-H460, in the assay with OVCAR-3 and with RXF 393 was > 100 µM (inactive) throughout. The GI50 with SK-MEL-5, in the assay on SN12C, with SNB-19, in the assay with SW-620, in the assay with T47D and with TK-10 was > 100 µM (inactive) throughout. In addition, the GI50 in the assay with UO-31 is > 100 µM (inactive).
Regarding `CN(C)CCNc1nc2c(no[n+]2[O-])c2ccccc12.[O-][Cl+3]([O-])([O-])O`, the GI50 was 18.7 µM (inactive) in the assay with 786-0; 30.3 µM (inactive) in the assay on CCRF-CEM; 26.1 µM (inactive) with EKVX; 18 µM with HCT-15; 13 µM (inactive) with HOP-62; 40.6 µM (inactive) with Hs-578T. Also, the GI50 in the assay on MDA-N is 28.9 µM (inactive); in the assay with Malme-3M it was 22.5 µM (inactive); with NCI-H23, 34.4 µM (inactive); in the assay on NCI-H460, 19.5 µM (inactive); with OVCAR-3 it was 30.8 µM (inactive); in the assay on RXF 393, 17.5 µM (inactive). Also, the GI50 in the assay on SK-MEL-5 is 15.2 µM (inactive); with SN12C it was 25.6 µM (inactive); in the assay on SNB-19 it was 20.7 µM (inactive); in the assay on SW-620, 11.1 µM (inactive); in the assay with T47D, 57.9 µM (inactive); in the assay on TK-10, 24.9 µM (inactive). Also, in the assay on UO-31, the GI50 is 19.5 µM (inactive).
Regarding `CCCCCCCCOc1ccc(/C=C/C2=[N+](CCO)CCO2)cc1`, the GI50 in the assay with 786-0 is 3.72 µM (inactive); in the assay with CCRF-CEM it was 3.08 µM (inactive); with EKVX, 3.94 µM (inactive); in the assay with HCT-15, 12.1 µM; with HOP-62, 8.63 µM (inactive); in the assay on Hs-578T it was 3.53 µM (inactive). Further, the GI50 was 3.56 µM (inactive) in the assay on MDA-N; 3.04 µM (inactive) with Malme-3M; 2.23 µM (inactive) with NCI-H23; 3.07 µM (inactive) with NCI-H460; 3.15 µM (inactive) with OVCAR-3; 1.8 µM (inactive) with RXF 393. Moreover, the GI50 in the assay on SK-MEL-5 is 2.56 µM (inactive); with SN12C, 3.18 µM (inactive); in the assay on SNB-19, 3.83 µM (inactive); in the assay on SW-620, 2.43 µM (inactive); with T47D, 3.35 µM (inactive); in the assay with TK-10, 3.36 µM (inactive). Moreover, the GI50 in the assay with UO-31 is 12.3 µM (inactive).
Regarding `N#C/N=C(/N)NCc1ccccc1`, the GI50 was > 100 µM (inactive) in the assay with 786-0; > 100 µM (inactive) in the assay with CCRF-CEM; > 100 µM with HCT-15; > 100 µM (inactive) in the assay on HOP-62; > 100 µM (inactive) with LXFL 529; > 100 µM (inactive) in the assay on Malme-3M. Moreover, the GI50 in the assay on NCI-H23, with NCI-H460, with OVCAR-3, in the assay with SK-MEL-5, in the assay on SN12C and in the assay with TK-10 was > 100 µM (inactive) in each case. Also, the GI50 with UO-31 is > 100 µM (inactive).
